Experimental data reported in patent US8575091B1, “Amylin analogues and pharmaceutical compositions thereof” (Novo Nordisk A/S, priority 2012, dated 2013).
Like-named read-outs stand apart in the source and are kept apart here. Numbered stars: 1 amine (or outer) side, 2 acyl side, 3 side chain; on linkers, the order of the positions; unused ones are H or OH. Bridge positions count the residues as written; N and C are the ends. Side chains are listed from the residue outwards. Peptide text beside a SMILES is read from it. * marks the point of attachment. C20 diacid = O=C(O)CCCCCCCCCCCCCCCCCCC(=O)*; γGlu = O=C(O)[C@H](CCC(=O)[*:2])N[*:1]

Assays:
[1] = Assay (IV) determination of solubility; assay type: physicochemical
Description: Assay (IV)—Determination of Solubility
The polypeptide was dissolved in water at ˜500 nmol/ml and mixed 1:1 with a series of buffers (100 mM glycylglycine pH 3.0, 100 mM glycylglycine pH 4.0, 100 mM glycylglycine pH 5.0, 100 mM bistrispropane pH 6.0, 100 mM bistrispropane pH 6.5, 100 mM bistrispropane pH 7.0, 100 mM bistrispropane pH 7.5, 100 mM bistrispropane pH 8.0). After 18 hours at room temperature the samples were centrifuged and the polypeptide concentration determined by UPLC.

[2] = target: T1, human calcitonin receptor (Homo sapiens, UniProt P30988); assay: Assay (VII) binding to the human calcitonin receptor (SPA, 125I-Calcitonin); details: read-out: hCTR bind IC50;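 also: cell membranes coupled to SPA beads, competitive displacement read by scintillation counting, IC50 derived from a one-site competition fit as a measure of receptor affinity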
T1 construct: expressed in transfected cells
T1 sequence (P30988 25-474): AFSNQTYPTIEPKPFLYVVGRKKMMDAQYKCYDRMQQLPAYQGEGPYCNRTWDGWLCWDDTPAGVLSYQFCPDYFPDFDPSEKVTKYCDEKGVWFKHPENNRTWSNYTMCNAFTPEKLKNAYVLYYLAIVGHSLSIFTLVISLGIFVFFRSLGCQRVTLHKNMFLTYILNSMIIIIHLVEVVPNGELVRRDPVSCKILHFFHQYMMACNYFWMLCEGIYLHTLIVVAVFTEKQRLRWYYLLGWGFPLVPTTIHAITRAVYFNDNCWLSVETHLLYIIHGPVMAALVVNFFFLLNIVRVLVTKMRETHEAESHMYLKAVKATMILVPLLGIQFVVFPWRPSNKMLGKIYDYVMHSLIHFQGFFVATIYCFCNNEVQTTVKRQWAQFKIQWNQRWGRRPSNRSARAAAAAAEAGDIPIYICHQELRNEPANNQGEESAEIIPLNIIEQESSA

[3] = target: T2, human amylin receptor (amylin 3(a) receptor: human calcitonin receptor + RAMP-3) (Homo sapiens, UniProt O60896+P30988); assay: Assay (II)a functional assay, human amylin receptor (CRE luciferase, BHK cells); assay type: cell-based; details: for EC50: functional assay, human amylin receptor, read-out: hAmylin-R funct. EC50
T2 construct: expressed in transfected cells
T2 sequence (P30988 25-474): T1 sequence (P30988 25-474)
T2 sequence (O60896 24-148 partner): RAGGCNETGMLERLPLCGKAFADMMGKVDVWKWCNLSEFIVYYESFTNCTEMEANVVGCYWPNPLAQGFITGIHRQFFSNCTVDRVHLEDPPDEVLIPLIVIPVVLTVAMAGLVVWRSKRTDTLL

[4] = target: T1, human calcitonin receptor; assay: Assay (II)a functional assay, human calcitonin receptor (CRE luciferase, BHK cells);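 also: luminescence from a CRE-driven luciferase reporter, read by single photon counting after cells were exposed to test samples for 3 h at 37 °C under 5% CO2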; assay type: cell-based; details: read-out: hCTR funct. EC50
[5] = target: T3, human amylin receptor (Homo sapiens, UniProt O60896+P30988); assay: Assay (V) binding to the human amylin receptor (SPA, 125I-rat amylin); details: for IC50: read-out: hAmylin-R bind IC50
T3 construct: expressed in transfected cells
T3 sequence (P30988 25-474): T1 sequence (P30988 25-474)
T3 sequence (O60896 24-148 partner): T2 sequence (O60896 24-148 partner)
In short: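 IC50, taken as receptor affinity, came from one-site binding competition analysis of scintillation proximity counts. Amylin 3(a)/CRE-luc cell membranes (35 ng/μL final) were mixed with SPA beads (0.05 mg/well) in 50 mM Hepes pH 7.4 containing CaCl2, MgCl2, 0.1% OA and 0.02% Tween20.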

[6] = human amylin receptor membranes, SPA

Row | SMILES | Solubility pH 6.5 Concentration (μM) ([1]; pH 6.5, 18 hours room temperature) | Solubility pH 7.0 Concentration (μM) ([1]; pH 7.0, 18 hours room temperature) | Solubility pH 7.5 Concentration (μM) ([1]; pH 7.5, 18 hours room temperature) | Solubility pH 8.0 Concentration (μM) ([1]; pH 8.0, 18 hours room temperature) | IC50 [2] [nM] | Ratio hCT/hAmylin funct. ([3]; Table 6, human functional selectivity (hCTR EC50 / hAmylin-R EC50)) | Ratio hCT/hAmylin funct. ([3]; Table 6a, human functional selectivity (hCTR EC50 / hAmylin-R EC50), at least 5) | Ratio hCT/hAmylin funct. ([3]; Table 6j, hCTR funct. EC50 / hAmylin-R funct. EC50) | Ratio hCT/hAmylin funct. ([3]; Table 6k, hCTR funct. EC50 / hAmylin-R funct. EC50) | EC50 [3] [nM] | EC50 [4] [nM] | IC50 [5, 6] [nM] | Solubility pH 4.0 Concentration (μM) ([1]; pH 4.0, 18 hours room temperature) | Solubility pH 6.0 Concentration (μM) ([1]; pH 6.0, 18 hours room temperature) | IC50 ([5]; binding to human amylin receptor) [nM] | Ratio hCT/hAmylin binding ([5]; human binding ratio, included for comparison)
1 | CC[C@H](C)[C@H](NC(=O)[C@H](C)NC(=O)CNC(=O)[C@H](Cc1ccccc1)NC(=O)[C@H](CC(N)=O)NC(=O)[C@@H]1CCCN1C(=O)[C@H](CO)NC(=O)[C@H](CO)NC(=O)[C@H](Cc1c[nH]cn1)NC(=O)[C@H](CCCNC(=N)N)NC(=O)[C@H](CC(C)C)NC(=O)[C@H](Cc1ccccc1)NC(=O)[C@H](Cc1c[nH]cn1)NC(=O)[C@H](C)NC(=O)[C@H](CC(C)C)NC(=O)[C@H](CCCNC(=N)N)NC(=O)[C@H](CCC(N)=O)NC(=O)[C@@H](NC(=O)[C@H](C)NC(=O)[C@@H]1CSSC[C@H](NC(=O)[C@H](CCCNC(=N)N)NC(=O)CNC(=O)CC[C@H](NC(=O)CCCCCCCCCCCCCCCCCCC(=O)O)C(=O)O)C(=O)N[C@@H](CC(N)=O)C(=O)N[C@@H]([C@@H](C)O)C(=O)N[C@@H](C)C(=O)N[C@@H]([C@@H](C)O)C(=O)N1)[C@@H](C)O)C(=O)N1CCC[C@H]1C(=O)N[C@@H](CO)C(=O)N[C@@H](CO)C(=O)N[C@H](C(=O)N[C@@H](CC(N)=O)C(=O)N[C@H](C(=O)NCC(=O)N[C@@H](Cc1c[nH]cn1)C(=O)N[C@@H](CC(N)=O)C(=O)N[C@H](C(=O)N[C@@H](Cc1ccc(O)cc1)C(N)=O)[C@@H](C)O)C(C)C)[C@@H](C)O [Example 100] ({C20 diacid-γGlu}-GRCNTATCATQRLAHFLRHSSPNFGAIPSSTNVGHNTY-NH2; disulfide 3-8) | ≧200 μM | 109 | 26 | 31 | 66.3 | 6.8 | 6.8 | 6.8 | 6.8 | 0.253 | 1.73 | 1.02 |  |  |  | 
2 | CC[C@H](C)[C@H](NC(=O)[C@H](C)NC(=O)CNC(=O)[C@@H]1CCCN1C(=O)[C@H](CC(N)=O)NC(=O)[C@H](CC(N)=O)NC(=O)[C@H](CO)NC(=O)[C@H](CO)NC(=O)[C@H](Cc1c[nH]cn1)NC(=O)[C@H](CCCNC(=N)N)NC(=O)[C@H](CC(C)C)NC(=O)[C@H](Cc1ccccc1)NC(=O)[C@H](CCC(=O)O)NC(=O)[C@H](C)NC(=O)[C@H](CC(C)C)NC(=O)[C@H](CCCNC(=N)N)NC(=O)[C@H](CCC(N)=O)NC(=O)[C@@H](NC(=O)[C@H](C)NC(=O)[C@@H]1CSSC[C@H](NC(=O)[C@@H](N)CCCCNC(=O)CC[C@H](NC(=O)CC[C@H](NC(=O)CCCCCCCCCCCCCCCCCCC(=O)O)C(=O)O)C(=O)O)C(=O)N[C@@H](CC(N)=O)C(=O)N[C@@H]([C@@H](C)O)C(=O)N[C@@H](C)C(=O)N[C@@H]([C@@H](C)O)C(=O)N1)[C@@H](C)O)C(=O)N[C@@H](CC(C)C)C(=O)N[C@@H](CO)C(=O)N[C@@H](CO)C(=O)N[C@H](C(=O)N[C@@H](CC(N)=O)C(=O)N[C@H](C(=O)NCC(=O)N1CCC[C@H]1C(=O)N[C@@H](CCC(=O)O)C(=O)N[C@H](C(=O)N[C@@H](Cc1ccc(O)cc1)C(N)=O)[C@@H](C)O)C(C)C)[C@@H](C)O [Example 126] (H-K([γGlu-γGlu-C20 diacid])CNTATCATQRLAEFLRHSSNNPGAILSSTNVGPETY-NH2; disulfide 2-7) |  |  |  |  | 9.29 |  |  |  |  | 5.17 | 89.6 | 1.19 | 7 | 64 | 1.19 | 7.8
